# Measurements published in patent publication US20250215030A1, “STAT MODULATORS AND USES THEREOF” (Recludix Pharma, Inc., priority 2022, published 2025).
# pIC50: −log10 of the molar value.
# Molecular target: T1, pSTAT3 (pY705-STAT3) (Homo sapiens, UniProt P40763)
# T1 construct: host or cells: cryopreserved PBMC
# Experiment: MSD-pSTAT-PBMC Assay (pSTAT3, IL-6 stimulated)
# Format: cell-based
# Settings: not given
# In short: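 Human PBMCs (50,000 cells/well for STAT3, 25,000 for STAT6) treated with compound 3 h, then stimulated 10 min with 10 ng/mL IL-6 or 1 ng/mL IL-4. Lysate pSTAT3 (pY705) or pSTAT6 (pY641) measured by MSD sandwich electrochemiluminescence. Signal minus unstimulated, normalized to DMSO; IC50 by variable-slope nonlinear regression.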
# T1 sequence (P40763 whole entry): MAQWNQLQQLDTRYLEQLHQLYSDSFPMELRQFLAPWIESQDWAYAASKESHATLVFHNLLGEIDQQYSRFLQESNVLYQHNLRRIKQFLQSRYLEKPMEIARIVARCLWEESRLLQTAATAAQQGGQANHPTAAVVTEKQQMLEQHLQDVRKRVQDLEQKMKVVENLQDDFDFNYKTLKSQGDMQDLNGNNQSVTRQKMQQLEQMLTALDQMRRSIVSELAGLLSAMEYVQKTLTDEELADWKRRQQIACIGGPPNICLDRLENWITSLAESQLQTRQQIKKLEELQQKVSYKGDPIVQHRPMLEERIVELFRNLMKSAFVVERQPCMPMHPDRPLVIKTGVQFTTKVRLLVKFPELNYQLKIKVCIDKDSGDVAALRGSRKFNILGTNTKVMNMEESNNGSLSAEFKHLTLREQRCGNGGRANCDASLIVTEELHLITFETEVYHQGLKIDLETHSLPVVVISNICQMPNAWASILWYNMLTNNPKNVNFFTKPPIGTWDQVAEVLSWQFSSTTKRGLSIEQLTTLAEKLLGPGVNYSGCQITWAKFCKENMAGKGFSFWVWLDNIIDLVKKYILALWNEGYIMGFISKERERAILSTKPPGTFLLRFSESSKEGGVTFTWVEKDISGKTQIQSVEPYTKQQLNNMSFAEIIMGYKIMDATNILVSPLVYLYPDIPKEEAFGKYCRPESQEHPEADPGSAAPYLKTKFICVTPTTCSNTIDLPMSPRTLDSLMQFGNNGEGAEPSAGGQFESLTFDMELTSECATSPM
row,Compound,pIC50
1,"CCCOC(=O)[C@H](C)N[P@@](=O)(Oc1ccccc1)[C@@H](F)c1ccc2sc(C(=O)N[C@H]3C[C@@H]4C[C@@H]4C[C@H]4CC[C@@H](C(=O)N5C[C@H](c6cccnc6)[C@@H](C#N)C56CC6)N4C3=O)cc2c1 (single isomer, unassigned) [Compound 431]",< 5.52
2,"CCCOC(=O)[C@H](C)NP(=O)(Oc1ccccc1)C(F)c1ccc2sc(C(=O)N[C@H]3C[C@@H]4C[C@@H]4C[C@H]4CC[C@@H](C(=O)N[C@H]5CN(C(N)=O)C[C@@H]5F)N4C3=O)cc2c1 (stereo partly drawn) [Compound 382, propyl(((2-(((3S,6S,7aS,8aR,9aR)-3-(((3S,4S)-1-carbamoyl-4-fluoropyrrolidin-3-yl)carbamoyl)-5-oxodecahydro-1H-cyclopropa[d]pyrrolo[1,2-a]azocin-6-yl)carbamoyl)benzo[b]thiophen-5-yl)fluoromethyl)(phenoxy)phosphoryl)-L-alaninate]",6.00 to 7.00
3,"CCCOC(=O)[C@H](C)N[P@@](=O)(Oc1ccccc1)[C@H](F)c1ccc2sc(C(=O)N[C@H]3C[C@H]4C[C@H]4C[C@H]4CC[C@@H](C(=O)N5CC(c6cnccc6N6CCOCC6)C5)N4C3=O)cc2c1 [Compound 396, propyl((S)-((S)-fluoro(2-(((3S,6S,7aR,8aS,9aR)-3-(3-(4-morpholinopyridin-3-yl)azetidine-1-carbonyl)-5-oxodecahydro-1H-cyclopropa[d]pyrrolo[1,2-a]azocin-6-yl)carbamoyl)benzo[b]thiophen-5-yl)methyl)(phenoxy)phosphoryl)-L-alaninate]",> 7.00

# Same assay, conditions: PBMC, compound 3 hrs, then 10 ng/mL IL-6 for 10 min; MSD pY705-STAT3; read-out: pSTAT3
row,Compound,pIC50
1,"CCCOC(=O)[C@H](C)NP(=O)(Oc1ccccc1)C(F)c1ccc2sc(C(=O)N[C@H]3C[C@@H]4C[C@@H]4C[C@H]4CC[C@@H](C(=O)N5CC(c6cnccc6C)C5)N4C3=O)cc2c1 (stereo partly drawn) [Compound 307, propyl ((fluoro(2-(((3S,6S,7aS,8aR,9aR)-3-(3-(4-methylpyridin-3-yl)azetidine-1-carbonyl)-5-oxodecahydro-1H-cyclopropa[d]pyrrolo[1,2-a]azocin-6-yl)carbamoyl)benzo[b]thiophen-5-yl)methyl)(phenoxy)phosphoryl)-L-alaninate]",> 7.00
2,CC(C)(C)C(=O)SCCOP(=O)(OCCSC(=O)C(C)(C)C)C(F)(F)c1ccc2sc(C(=O)N[C@H]3C[C@@H]4C[C@@H]4C[C@H]4CC[C@@H](C(=O)N5CC(c6ccccn6)C5)N4C3=O)cc2c1 [Compound 314],> 7.00
3,"CCCOC(=O)C(C)NP(=O)(Oc1ccccc1)C(F)c1ccc2sc(C(=O)N[C@H]3C[C@@H]4C[C@@H]4C[C@H]4CC[C@@H](C(=O)N5C[C@H]6[C@@H]5CCN6c5cccnc5)N4C3=O)cc2c1 (stereo in doubt) [Compound 297, propyl ((fluoro(2-(((3S,6S,7aS,8aR,9aR)-5-oxo-3-((1S,5S)-2-(pyridin-3-yl)-2,6-diazabicyclo[3.2.0]heptane-6-carbonyl)decahydro-1H-cyclopropa[d]pyrrolo[1,2-a]azocin-6-yl)carbamoyl)benzo[b]thiophen-5-yl)methyl)(phenoxy)phosphoryl)-L-alaninate]",> 7.00
4,"propyl(((2-(((3S,6S,7aS,8aR,9aR)-3-((1R,5R)-2-acetyl-2,6-diazabicyclo[3.2.0]heptane-6-carbonyl)-5-oxodecahydro-1H-cyclopropa[d]pyrrolo[1,2-a]azocin-6-yl)carbamoyl)benzo[b]thiophen-5-yl)fluoromethyl)(phenoxy)phosphoryl)-L-alaninate [Compound 292]",> 7.00
5,"CC(C)OC(=O)[C@H](C)NP(=O)(Cc1ccc2sc(C(=O)N[C@H]3C[C@@H]4C[C@@H]4C[C@H]4CC[C@@H](C(=O)N5CC(C(=O)N6CCOCC6)C5)N4C3=O)cc2c1)N[C@@H](C)C(=O)OC(C)C [Compound 147, diisopropyl 2,2′-((((2-(((3S,6S,7aS, 8aR,9aR)-3-(3-(morpholine-4-carbonyl)azetidine-1-carbonyl)-5-oxodecahydro-1H-cyclopropa[d]pyrrolo[1,2-a]azocin-6-yl)carbamoyl)benzo[b]thiophen-5-yl)methyl)phosphoryl)bis(azanediyl)) (2S,2′S)-dipropionate]",< 5.52
6,"CCOC(=O)[C@H](C)NC(=O)OCOP(=O)(Cc1ccc2sc(C(=O)N[C@H]3C[C@@H]4C[C@@H]4C[C@H]4CC[C@@H](C(=O)N5CC(C(=O)N6CCOCC6)C5)N4C3=O)cc2c1)OCOC(=O)N[C@@H](C)C(=O)OCC [Compound 160, diethyl 2,2′-((((((((2-(((3S, 6S,7aS,8aR, 9aR)-3-(3-(morpholine-4-carbonyl)azetidine-1-carbonyl)-5-oxodecahydro-1H-cyclopropa [d]pyrrolo[1,2-a]azocin-6-yl)carbamoyl)benzo[b]thiophen-5-yl)methyl)phosphoryl)bis(oxy))bis(methylene))bis(oxy))bis(carbonate))bis(azanediyl)) (2S,2′S)-dipropionate]",< 5.52
7,"CCCOC(=O)[C@H](C)NP(=O)(Oc1ccccc1)C(F)c1ccc2sc(C(=O)N[C@H]3C[C@@H]4C[C@@H]4C[C@H]4CC[C@@H](C(=O)N5CC(c6cc(C)no6)C5)N4C3=O)cc2c1 (stereo partly drawn) [Compound 361, propyl ((fluoro(2-(((3S,6S,7aS,8aR,9aR)-3-(3-(3-methylisoxazol-5-yl)azetidine-1-carbonyl)-5-oxodecahydro-1H-cyclopropa[d]pyrrolo[1,2-a]azocin-6-yl)carbamoyl)benzo[b]thiophen-5-yl)methyl)(phenoxy)phosphoryl)-L-alaninate]",> 7.00
8,"CCCOC(=O)[C@H](C)NP(=O)(Oc1ccccc1)C(F)c1ccc2sc(C(=O)N[C@H]3C[C@@H]4C[C@@H]4C[C@H]4CC[C@@H](C(=O)N5CC(c6nncn6C)C5)N4C3=O)cc2c1 (stereo partly drawn) [Compound 309, propyl ((fluoro(2-(((3S,6S,7aS,8aR,9aR)-3-(3-(4-methyl-4H-1,2,4-triazol-3-yl)azetidine-1-carbonyl)-5-oxodecahydro-1H-cyclopropa[d]pyrrolo[1,2-a]azocin-6-yl)carbamoyl)benzo[b]thiophen-5-yl)methyl)(phenoxy)phosphoryl)-L-alaninate]",< 5.52
9,"CC(C)OC(=O)[C@H](C)N[P@](=O)(Cc1ccc2sc(C(=O)N[C@H]3C[C@@H]4C[C@@H]4C[C@H]4CC[C@@H](C(=O)N5CC(C(=O)N6CCOCC6)C5)N4C3=O)cc2c1)Oc1ccccc1 (single isomer, unassigned) [Example 6]",5.52 to 6.00
10,"CCCOC(=O)[C@H](C)NP(=O)(Cc1ccc2sc(C(=O)N[C@H]3C[C@H]4C[C@H]4C[C@H]4CC[C@@H](C(=O)N[C@H]5CN(c6cccnc6)C[C@@H]5F)N4C3=O)cc2c1)Oc1ccccc1 (stereo partly drawn) [Compound 269, propyl(((2-(((3S,6S,7aR,8aS,9aR)-3-(((3S,4S)-4-fluoro-1-(pyridin-3-yl)pyrrolidin-3-yl)carbamoyl)-5-oxodecahydro-1H-cyclopropa[d]pyrrolo[1,2-a]azocin-6-yl)carbamoyl)benzo[b]thiophen-5-yl)methyl)(phenoxy)phosphoryl)-L-alaniante]",> 7.00
11,"CC(C)(C)C(=O)SCCOP(=O)(OCCSC(=O)C(C)(C)C)C(F)(F)c1ccc2ccc(C(=O)N[C@H]3C[C@@H]4C[C@@H]4C[C@H]4CC[C@@H](C(=O)N5CC(n6ccnc6)C5)N4C3=O)cc2c1 [Compound 221, S,S′-(((((7-(((3S,6S,7aS, 8aR,9aR)-3-(3-(1H-imidazol-1-yl)azetidine-1-carbonyl)-5-oxodecahydro-1H-cyclopropa[d]pyrrolo[1,2-a]azocin-6-yl)carbamoyl)naphthalen-2-yl)difluoromethyl)phosphoryl)bis(oxy))bis(ethane-2,1-diyl)) bis(2,2-dimethyl-propanethioate)]",> 7.00
12,"CCCOC(=O)[C@H](C)NP(=O)(Cc1ccc2sc(C(=O)N[C@H]3C[C@@H]4C[C@@H]4C[C@H]4CC[C@@H](C(=O)N5CC(c6cnccc6F)C5)N4C3=O)cc2c1)Oc1ccccc1 (stereo partly drawn) [Compound 264, propyl (((2-(((3S,6S,7aS,8aR,9aR)-3-(3-(4-fluoropyridin-3-yl)azetidine-1-carbonyl)-5-oxodecahydro-1H-cyclopropa[d]pyrrolo[1,2-a]azocin-6-yl)carbamoyl)benzo[b]thiophen-5-yl)methyl)(phenoxy)phosphoryl)-L-alaninate]",> 7.00
13,"O=C(OCOP(=O)(Cc1ccc2sc(C(=O)N[C@H]3C[C@@H]4C[C@@H]4C[C@H]4CC[C@@H](C(=O)N5CC(C(=O)N6CCOCC6)C5)N4C3=O)cc2c1)OCOC(=O)OC1CCOCC1)OC1CCOCC1 [Compound 130, ((((2-(((3S,6S,7aS, 8aR,9aR)-3-(3-(morpholine-4-carbonyl)azetidine-1-carbonyl)-5-oxodecahydro-1H-cyclopropa[d]pyrrolo[1,2-a]azocin-6-yl)carbamoyl)benzo[b]thiophen-5-yl)methyl)phosphoryl)bis (oxy))bis (methylene) bis(tetrahydro-2H-pyran-4-yl) bis(carbonate)]",< 5.52
14,"C[C@H](OP(=O)(Oc1ccccc1)C(F)(F)c1ccc2sc(C(=O)N[C@H]3C[C@@H]4C[C@@H]4C[C@H]4CC[C@@H](C(=O)N5CC(C(=O)N6CCOCC6)C5)N4C3=O)cc2c1)C(=O)OCc1ccccc1 (stereo partly drawn) [Compound 174, benzyl (2S)-2-(((difluoro(2-(((3S,6S,7aS, 8aR,9aR)-3-(3-(morpholine-4-carbonyl)azetidine-1-carbonyl)-5-oxodecahydro-1H-cyclopropa[d]pyrrolo[1,2-a]azocin-6-yl)carbamoyl)benzo[b]thiophen-5-yl)methyl) (phenoxy)phosphoryl)oxy) propanoate]",5.52 to 6.00
15,"propyl(((2-(((3S,6S,8aR,9aS,9bR)-8a-methyl-5-oxo-3-(3-(pyridin-3-yl)azetidine-1-carbonyl)decahydro-1H-cyclopropa[c]pyrrolo[1,2-a]azocin-6-yl)carbamoyl)benzo[b]thiophen-5-yl)methyl)(phenoxy)phosphoryl)-L-alaninate [Compound 232]",> 7.00
